Laboratory results reported in ChEMBL document CHEMBL1140529, “Androstene-3,5-dienes as ER-beta selective SERMs” (Bioorg Med Chem Lett, 2007).

Assays:
[1] = molecular target: T1, Estrogen receptor beta (Homo sapiens, UniProt Q92731)
Description: Binding affinity at human recombinant ERbeta

[2] = molecular target: T1, Estrogen receptor beta; type: functional, cell-based, HEK293
Description: Agonist activity at ERbeta expressed in HEK293 cells by transactivation assay

[3] = molecular target: T2, Androgen receptor (Homo sapiens, UniProt P10275)
T2 sequence (P10275 whole entry): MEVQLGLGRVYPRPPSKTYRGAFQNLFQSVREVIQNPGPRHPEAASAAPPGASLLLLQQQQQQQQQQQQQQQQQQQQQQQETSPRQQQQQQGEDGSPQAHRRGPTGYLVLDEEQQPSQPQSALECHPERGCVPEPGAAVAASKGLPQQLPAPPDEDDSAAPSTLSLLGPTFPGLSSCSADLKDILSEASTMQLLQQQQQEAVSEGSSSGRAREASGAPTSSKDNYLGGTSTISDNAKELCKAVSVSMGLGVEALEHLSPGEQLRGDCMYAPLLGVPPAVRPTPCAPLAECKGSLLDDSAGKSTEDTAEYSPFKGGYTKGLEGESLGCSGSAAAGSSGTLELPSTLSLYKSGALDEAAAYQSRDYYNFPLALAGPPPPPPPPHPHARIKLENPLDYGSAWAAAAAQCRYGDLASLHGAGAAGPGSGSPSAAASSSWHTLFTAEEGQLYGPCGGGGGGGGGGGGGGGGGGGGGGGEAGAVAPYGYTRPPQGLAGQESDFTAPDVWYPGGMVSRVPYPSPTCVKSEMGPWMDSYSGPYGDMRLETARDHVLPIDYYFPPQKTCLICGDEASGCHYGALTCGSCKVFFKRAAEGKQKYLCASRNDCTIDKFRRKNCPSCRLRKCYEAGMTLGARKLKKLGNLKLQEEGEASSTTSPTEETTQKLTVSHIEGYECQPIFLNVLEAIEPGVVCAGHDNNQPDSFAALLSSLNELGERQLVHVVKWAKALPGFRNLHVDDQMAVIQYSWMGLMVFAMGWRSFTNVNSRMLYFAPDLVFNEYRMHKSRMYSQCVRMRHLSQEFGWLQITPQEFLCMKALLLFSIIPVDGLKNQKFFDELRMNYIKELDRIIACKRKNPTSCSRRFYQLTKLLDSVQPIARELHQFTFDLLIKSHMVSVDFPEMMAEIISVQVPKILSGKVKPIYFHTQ

[4] = molecular target: T3, Estrogen receptor (Homo sapiens, UniProt P03372)
T3 sequence (P03372 whole entry): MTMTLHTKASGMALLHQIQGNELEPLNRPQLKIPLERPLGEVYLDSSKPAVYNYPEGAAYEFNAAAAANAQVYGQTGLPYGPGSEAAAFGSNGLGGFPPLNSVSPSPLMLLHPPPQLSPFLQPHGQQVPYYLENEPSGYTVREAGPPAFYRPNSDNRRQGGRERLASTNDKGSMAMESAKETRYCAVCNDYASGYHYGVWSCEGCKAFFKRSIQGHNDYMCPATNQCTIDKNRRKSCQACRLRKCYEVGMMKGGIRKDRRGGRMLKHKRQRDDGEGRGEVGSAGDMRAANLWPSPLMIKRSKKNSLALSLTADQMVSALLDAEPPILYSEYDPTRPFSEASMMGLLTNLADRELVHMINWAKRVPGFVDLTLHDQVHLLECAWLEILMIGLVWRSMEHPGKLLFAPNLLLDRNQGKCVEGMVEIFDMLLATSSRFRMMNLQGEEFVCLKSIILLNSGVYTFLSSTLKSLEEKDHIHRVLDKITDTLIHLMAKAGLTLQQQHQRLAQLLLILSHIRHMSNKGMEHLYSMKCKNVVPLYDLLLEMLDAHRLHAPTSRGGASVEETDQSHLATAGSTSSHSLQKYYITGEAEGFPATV
Description: Binding affinity at human recombinant ERalpha

[5] = molecular target: T3, Estrogen receptor; type: functional, cell-based, HEK293
Description: Agonist activity at ERalpha expressed in HEK293 cells by transactivation assay

T1 sequence (Q92731 whole entry): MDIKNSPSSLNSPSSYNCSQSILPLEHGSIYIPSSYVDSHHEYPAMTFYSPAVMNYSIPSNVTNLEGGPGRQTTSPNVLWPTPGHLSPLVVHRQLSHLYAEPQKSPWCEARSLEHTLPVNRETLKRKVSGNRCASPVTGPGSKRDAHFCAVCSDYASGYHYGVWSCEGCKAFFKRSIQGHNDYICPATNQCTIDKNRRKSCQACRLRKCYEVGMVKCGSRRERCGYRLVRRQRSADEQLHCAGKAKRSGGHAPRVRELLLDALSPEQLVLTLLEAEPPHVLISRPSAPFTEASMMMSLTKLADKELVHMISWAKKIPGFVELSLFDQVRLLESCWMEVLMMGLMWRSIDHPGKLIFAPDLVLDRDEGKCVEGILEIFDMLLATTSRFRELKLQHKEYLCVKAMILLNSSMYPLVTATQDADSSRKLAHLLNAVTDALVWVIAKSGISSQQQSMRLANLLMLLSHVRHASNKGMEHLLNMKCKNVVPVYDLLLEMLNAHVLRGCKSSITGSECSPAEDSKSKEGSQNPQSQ

Row | SMILES | IC50 [1] [nM] | EC50 [2] [nM] | IC50 [3] [nM] | IC50 [4] [nM] | EC50 [5] [nM]
1 | C=C1C=C2CC[C@H]3[C@@H]4CC[C@H](O)[C@@]4(C)CC[C@@H]3[C@@]2(C)CC1 | 34 | 210 | 40 | – | –
2 | C=C[C@]12CCC(CC)=CC1=CC[C@H]1[C@@H]3CC[C@H](O)[C@@]3(C)CC[C@@H]12 | 115 | 565 | 500 | 3110 | > 1000
3 | C=C[C@]12CC[C@H](O)CC1=CC[C@@H]1[C@@H]2CC[C@@]2(C)[C@H]1CC[C@]2(C)O | – | 190 | – | 1050 | > 1000
4 | CC1=CC2=CC[C@H]3[C@@H]4CC[C@H](O)[C@@]4(C)CC[C@@H]3[C@@]2(C)CC1 | 9.4 | 220 | 2250 | – | –
5 | C=C[C@]12CC[C@@](C)(O)CC1=CC[C@H]1[C@@H]3CC[C@H](O)[C@@]3(C)CC[C@@H]12 | 2490 | > 1000 | 2610 | > 10000 | > 1000
6 | C=C[C@]12CC[C@](C)(O)CC1=CC[C@H]1[C@@H]3CC[C@H](O)[C@@]3(C)CC[C@@H]12 | 255 | 240 | 842 | 5300 | > 1000
7 | C=C[C@]12CCC(C)=CC1=CC[C@H]1[C@@H]3CC[C@H](O)[C@@]3(C)CC[C@@H]12 | 9 | 69 | 560 | 1440 | > 1000
8 | C=C[C@]12CCC(C)=CC1=CC[C@@H]1[C@@H]2CC[C@@]2(C)[C@H]1CC[C@]2(C)O | 53 | 480 | 520 | 4380 | > 1000
9 | C=C[C@]12CCC(c3ccccc3)=CC1=CC[C@H]1[C@@H]3CC[C@H](O)[C@@]3(C)CC[C@@H]12 | 1760 | > 1000 | 3160 | > 10000 | > 1000
10 | C=C[C@]12CCC(=C)C=C1CC[C@H]1[C@@H]3CC[C@H](O)[C@@]3(C)CC[C@@H]12 | 120 | 230 | 330 | > 10000 | 430
11 | C=C[C@]12CCC(Cl)=CC1=CC[C@H]1[C@@H]3CC[C@H](O)[C@@]3(C)CC[C@@H]12 | 64 | 170 | – | 5740 | 820
12 | C#CC1(O)CC[C@H]2[C@@H]3CC=C4C=C(C)CC[C@]4(C=C)[C@H]3CC[C@@]21C (single isomer, unassigned) | 72 | 31 | 1620 | 1850 | 490
13 | C#CC1(O)CC[C@H]2[C@@H]3CC=C4C[C@@H](O)CC[C@]4(C=C)[C@H]3CC[C@@]21C (single isomer, unassigned) | – | – | – | 150 | 130
14 | C[C@]12CC[C@H]3[C@@H](CCC4=CC(=O)CC[C@@]43C)[C@@H]1CC[C@@H]2O [TESTOSTERONE] | > 10000 | – | – | – | –
